The target of one test is T1, FXR LBD, GST (Homo sapiens, UniProt Q96RI1).
T1 construct: FXR LBD, GST; purchased Invitrogen PV4834
T1 sequence (Q96RI1 262-486 limits assumed): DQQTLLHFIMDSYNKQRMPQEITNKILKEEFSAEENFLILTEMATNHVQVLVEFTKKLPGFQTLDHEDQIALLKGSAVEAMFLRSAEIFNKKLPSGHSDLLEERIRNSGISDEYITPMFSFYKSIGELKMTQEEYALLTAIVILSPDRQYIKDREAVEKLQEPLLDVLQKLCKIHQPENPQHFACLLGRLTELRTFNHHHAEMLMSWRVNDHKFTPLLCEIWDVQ
The test can be described thus: FXR Binding Assay (TR-FRET, Fluorescein-SRC2-2 coactivator peptide). As to conditions: for Emax: % Activity relative to positive control, read-out: Pct Effect (Emax %); for EC50: TR-FRET FXR LBD coactivator recruitment. The method, then:
The interaction between the present compounds and FXR are evaluated by Time-Resolved Fluorescence Resonance Energy Transfer (TR-FRET) competition assay. FRET describes a radiation-free energy transfer between two chromophores: a donor fluorophore in its excited state can transfer energy to an acceptor fluorophore in close proximity (typically <10 nm). In contrast to standard FRET, TR-FRET unites time-resolved fluorescence (TRF) and the FRET principle, TRF use a long-lifetime lanthanide chelate as the donor species, while lanthanide chelates are unique in that their excited-state lifetime can be on the order of a millisecond or longer. Suitable neighbors for FRET are known in the art and can be obtained.
The assay was performed in following steps: first, prepared a) 1 mM compounds (100×) in DMSO; b) reaction buffer containing 1× buffer G with 10 mM DTT; c) 4×FXR LBD (20 nM) in 1× chilled buffer G. Second, performed 3-fold serial dilution of 1 mM test compounds using DMSO from 1 mM, 10 doses in a 96-well plate (249944, Nunc). Then, used complete buffer G to dilute each 100× compounds serial dilution to 2×. Third, added 10 μl 2× compound serial dilution into 384-well plate (3677, Corning). Then, added 5 μl FXR LBD into the assay plate. Prepared a solution containing 2 μM fluorescein-SRC2-2 (4×) and 20 nM Tb anti-GST antibody (4×) in buffer G at room temperature and started the reaction by adding 5 μl the above solution into each well of the assay plate. Centrifuged the assay plates at 1000 g for 1 min and then incubated at room temperature for lhr protected from light. Finally, the plate was read at wavelengths of 520 nm and 495 nm on Envision 2104 plate reader (PerkinElmer).
A ratio (Ratio520 nm/495 nm−Ratiobackground) was calculated for each well. The activity ratio was calculated as follow: […]
Ratiopositive: The average ratio for the positive control across the plate.
Ratiovehicle: The average ratio for negative controls across the plate.
(§1) EC50 was calculated by fitting % Activity values and log of compound concentrations to nonlinear regression (dose response-variable slope) with GraphPad 5.0.
(§2) X: log of compound concentration.

For test [1], the target named is T2, hFXR-LBD (FXR-GAL4 chimeric receptor) (Homo sapiens, UniProt Q96RI1).
T2 construct: host or cells: HEK293T
T2 sequence (Q96RI1 262-486 limits assumed): T1 sequence (Q96RI1 262-486 limits assumed)
The test can be described thus: FXR Transactivation Assay (GAL4 luciferase reporter in HEK293T cells). It counts as cell-based. Here is the method:
FXR Transactivation Assay
The present compounds were tested to assess their ability to stimulate FXR transactivation activity. The hFXR-LBD, coding sequence was inserted into the pBIND expression vector (Promega, E1581) to express FXR-GAL4 binding domain chimeric receptors. This expression vector and reporter vector (pGL4.35 which carry a stably integrated GAL4 promoter driven luciferase reporter gene) were co-transfected into HEK293T host cells. Upon agonist binding to the corresponding FXR-GAL4 chimeric receptor, the chimeric receptor binds to the GAL4 binding sites and stimulates the reporter gene.
All the working stock were shake for 5 min on plate shaker (QILINBEIER). Second, all cells were cultured as ATCC recommended. HEK293T cells were assayed in exponential growth phase. Removed culture medium from the flask and rinsed cells with PBS. Added TrypLE solution to the flask and make cells detach. Next, cells were washed once with complete growth medium. Then, cells were pelleted and washed twice with PBS to remove phenol red and resuspend them in medium to a proper concentration. Only cells with viability greater than 90% were used for assays. Seeded 6×10^6 HEK293T cells into a 100 mm dish and incubated at 37° C. under 5% CO2 atmosphere for 16 h. Third, Trans-IT reagent and Opti-MEM mix by inversion and incubate 5 min at room temperature. The cell transfection was performed by mixing DNA and the reagent mixture, as well as 6 μg GAL4-FXR plasmid or 2 μg pGL4.35 luciferase plasmid, respectively. The reagent mixture was added to a 100 mm dish and incubated for 4-7 hrs at 37° C. under 5% CO2 atmosphere. Fourth, transferred 75 nl compound dilutions into 384-well assay plates (PerkinElmer) and seeded HEK293T cells at 17,000 cells/well using phenol red-free DMEM containing 5% charcoal/dextran-treated FBS. Then, cells were incubated for 16-20 h at 37° C. under 5% CO2 atmosphere. Finally, added 25 μl Steady-Glo™ Luciferase Assay Reagent into each well of 384-well assay plate, and then shake plate for 5 min protected from light on a plate shaker. Then, the luminescence value was read on Evision 2104 plate reader (PerkinElmer).
The activity ratio was calculated as follow: […]
RLU: Resulting Luminescence
RLUpositive: The average RLU for the positive controls across the plate.
RLUvehicle: The average RLU for negative controls across the plate.
as §1, §2

As to `Cn1cc(C(=O)O)c2ccc(N3CCN(CCc4c(-c5c(Cl)cccc5Cl)noc4C4CC4)CC3)cc21` [Example I1, 6-(4-(2-(5-cyclopropyl-3-(2,6-dichlorophenyl)isoxazol-4-yl)ethyl)piperazin-1-yl)-1-methyl-1H-indole-3-carboxylic Acid], on FXR LBD, GST, the maximal response (Emax) is 161% and the EC50 is 58 nM. Also, a half-maximal response in test [1] (EC50) required 101 nM.
For the compound `Cn1cc(C(=O)O)c2ccc(N3CCN(C(=O)Cc4c(-c5c(Cl)cccc5Cl)noc4C4CC4)CC3)cc21` [Example I2, 6-(4-(2-(5-cyclopropyl-3-(2,6-dichlorophenyl)isoxazol-4-yl)acetyl)piperazin-1-yl)-1-methyl-1H-indole-3-carboxylic Acid], the Emax on FXR LBD, GST is 75.1%. Also, the EC50 was 5110 nM at FXR LBD, GST and 11100 nM in test [1].
For `CC(C)c1onc(-c2c(Cl)cccc2Cl)c1CCN1CCN(c2ccc3c(C(=O)O)cn(C)c3c2)CC1` [Example I3, 6-(4-(2-(3-(2,6-dichlorophenyl)-5-isopropylisoxazol-4-yl)ethyl)piperazin-1-yl)-1-methyl-1H-indole-3-carboxylic Acid], in that order: 192%, 91 nM and 239 nM.
Regarding `Cn1cc(C(=O)O)c2ccc(N3CC4CC(C3)N4CCc3c(-c4c(Cl)cccc4Cl)noc3C3CC3)cc21` [Example I49, 6-(6-(2-(5-cyclopropyl-3-(2,6-dichlorophenyl)isoxazol-4-yl)ethyl)-3,6-diazabicyclo[3.1.1]heptan-3-yl)-1-methyl-1H-indole-3-carboxylic Acid], the EC50 at FXR LBD, GST is over 10000 nM.
Take `CC1CN(CCc2c(-c3c(Cl)cccc3Cl)noc2C2CC2)CCN1c1ccc2nc(C(=O)O)ccc2c1` (stereo not shown) [Example I51, 6-(4-(2-(5-cyclopropyl-3-(2,6-dichlorophenyl)isoxazol-4-yl)ethyl)-2-methylpiperazin-1-yl)quinoline-2-carboxylic Acid]: on FXR LBD, GST, the Emax worked out at 96.5% and the EC50 worked out at 74 nM.
Take `CC1CN(c2ccc3nc(C(=O)O)ccc3c2)CCN1CCc1c(-c2c(Cl)cccc2Cl)noc1C1CC1` (stereo not shown) [Example I52, 6-(4-(2-(5-cyclopropyl-3-(2,6-dichlorophenyl)isoxazol-4-yl)ethyl)-3-methylpiperazin-1-yl)quinoline-2-carboxylic Acid]: on FXR LBD, GST, the maximum response (Emax) stood at 121% and a half-maximal effect (EC50) was put at 209 nM.
On to `COC(=O)c1ccc2cc(N3CCN(CCc4c(-c5c(Cl)cccc5Cl)noc4C4CC4)C(C)C3)ccc2n1` (stereo not shown) [Example I53, methyl 6-(4-(2-(5-cyclopropyl-3-(2,6-dichlorophenyl)isoxazol-4-yl)ethyl)-3-methylpiperazin-1-yl)quinoline-2-carboxylate], for which, at FXR LBD, GST, the Emax was 68.4% and a half-maximal response (EC50) required 436 nM.
On to `CC1CCN(c2ccc3c(C(=O)O)cn(C)c3c2)CCN1CCc1c(-c2c(Cl)cccc2Cl)noc1C1CC1` (stereo not shown) [Example I55, 6-(4-(2-(5-cyclopropyl-3-(2,6-dichlorophenyl)isoxazol-4-yl)ethyl)-5-methyl-1,4-diazepan-1-yl)-1-methyl-1H-indole-3-carboxylic Acid], for which, on FXR LBD, GST, the Emax is 70.9% and the half-maximal effective concentration (EC50) came to 2770 nM.
At FXR LBD, GST, `COC(=O)c1cn(C)c2cc(N3CCC(C)N(CCc4c(-c5c(Cl)cccc5Cl)noc4C4CC4)CC3)ccc12` (stereo not shown) [Example I56, methyl 6-(4-(2-(5-cyclopropyl-3-(2,6-dichlorophenyl)isoxazol-4-yl)ethyl)-5-methyl-1,4-diazepan-1-yl)-1-methyl-1H-indole-3-carboxylate] yielded an EC50 of over 10000 nM.
On to `CC1CC(c2ccc3c(C(=O)O)cn(C)c3c2)CCN1CCc1c(-c2c(Cl)cccc2Cl)noc1C1CC1` (stereo not shown) [Example I57, 6-(1-(2-(5-cyclopropyl-3-(2,6-dichlorophenyl)isoxazol-4-yl)ethyl)-2-methylpiperidin-4-yl)-1-methyl-1H-indole-3-carboxylic Acid], for which, at FXR LBD, GST, the Emax stood at 180% and the half-maximal effective concentration (EC50) was 384 nM.
On to `COC(=O)c1cn(C)c2cc(N3CCC(N(C)Cc4c(-c5c(Cl)cccc5Cl)noc4C4CC4)CC3)ccc12` [Example I59, methyl 6-(4-(((5-cyclopropyl-3-(2,6-dichlorophenyl)isoxazol-4-yl)methyl)(methyl)amino)piperidin-1-yl)-1-methyl-1H-indole-3-carboxylate], for which the EC50 on FXR LBD, GST was over 10000 nM.
Consider `O=C(O)c1cc(F)c2nc(N3CC4CC(C3)C4OCc3c(-c4ccccc4OC(F)(F)F)noc3C3CC3)sc2c1` (stereo not shown) [Example I60, 2-(6-((5-cyclopropyl-3-(2-(trifluoromethoxy)phenyl)isoxazol-4-yl)methoxy)-3-azabicyclo[3.1.1]heptan-3-yl)-4-fluorobenzo[d]thiazole-6-carboxylic Acid], for which, on FXR LBD, GST, the maximal effect (Emax) was found to be 35.3% and the EC50 is 732 nM.
For `Cn1cc(C(=O)O)c2ccc(N3CC4CC(C3)C4OCc3c(-c4c(Cl)cccc4Cl)noc3C3CC3)cc21` (stereo not shown) [Example I61, 6-(6-((5-cyclopropyl-3-(2,6-dichlorophenyl)isoxazol-4-yl)methoxy)-3-azabicyclo[3.1.1]heptan-3-yl)-1-methyl-1H-indole-3-carboxylic Acid], in that order: 67.7% and 616 nM.
Turning to `Cn1cc(C(=O)O)c2c(F)cc(N3CC4CC(C3)C4OCc3c(-c4c(Cl)cccc4Cl)noc3C3CC3)cc21` (stereo not shown) [Example I63, 6-(6-((5-cyclopropyl-3-(2,6-dichlorophenyl)isoxazol-4-yl)methoxy)-3-azabicyclo[3.1.1]heptan-3-yl)-4-fluoro-1-methyl-1H-indole-3-carboxylic Acid], at FXR LBD, GST, the Emax was 106% and it took 102 nM to reach a half-maximal effect (EC50).
With `O=C(O)c1ccc2nc(N3CC4CC(C3)C4OCc3c(-c4c(Cl)cccc4Cl)noc3C3CC3)sc2c1` (stereo not shown) [Example I65, 2-(6-((5-cyclopropyl-3-(2,6-dichlorophenyl)isoxazol-4-yl)methoxy)-3-azabicyclo[3.1.1]heptan-3-yl)benzo[d]thiazole-6-carboxylic Acid], the EC50 on FXR LBD, GST was over 10000 nM.
The compound `O=C(O)c1ccc2nc(N3CC4CC(C3)C4OCc3c(-c4ccccc4OC(F)(F)F)noc3C3CC3)sc2c1` (stereo not shown) [Example I66, 2-(6-((5-cyclopropyl-3-(2-(trifluoromethoxy)phenyl)isoxazol-4-yl)methoxy)-3-azabicyclo[3.1.1]heptan-3-yl)benzo[d]thiazole-6-carboxylic Acid] yielded an EC50 on FXR LBD, GST of over 10000 nM.
On FXR LBD, GST, `O=C(O)c1ccc2nc(N3CC4CC(C3)C4OCc3c(-c4c(Cl)cccc4Cl)noc3C3CC3)sc2c1` (stereo not shown) [Example I67, 2-(6-((5-cyclopropyl-3-(2,6-dichlorophenyl)isoxazol-4-yl)methoxy)-3-azabicyclo[3.1.1]heptan-3-yl)benzo[d]thiazole-6-carboxylic Acid] came in with a 50% effective concentration (EC50) of over 10000 nM.

(Values after patent US20220227745A1, “Compounds For Modulating FXR” (NANJING RUIJIE PHARMA TECH CO., LTD., priority 2019, published 2022).)
